# In patent US20190328869A1, “IMMUNOTHERAPEUTIC PRODUCT AND MDSC MODULATOR COMBINATION THERAPY” (Transgene SA, priority 2016, published 2019):
# Key:
# [1] = tested on: tumor-recruited MDSCs; details: mouse tumor models; cited from earlier work
# [2] = tested on: HBV-Core-specific and HBV-Polymerase-specific T cells producing IFNγ; assay: IFNγ-ELISpot, HBV-specific T cell responses (Full pool Core, VSA, N13F) in HBV-persistent mice; type: in vivo, C57BL/6J mice; details: splenocytes, day 76; cutoff 50 spots/10^6 cells; sildenafil 20 mg/kg/day D31-59 or D48-76
# Procedure: The capacity of splenocytes to produce IFNγ after different in vitro stimulations was measured by an IFNγ-ELISpot assay at day 76 post AAV2/8-HBV injection. HBV-specific responses were assessed using the HBV-Core peptides (A, Full pool Core), -polymerase specific peptide VSA (B) or N13F (C). Results are shown as the number of spots per 10^6 splenocytes. Each dot represents an individual mouse and thick line represents mean values for each group (+/−SEM). The horizontal gray line represents the technical cutoff value (50 spots/10^6 cells) above which values are considered as positive T cell responses. For groups with a positive T cell response, incidence of mice per group is indicated on the graph.
# The capacity of splenocytes to produce IFNγ after different in vitro stimulations was measured by an IFNγ-ELISpot assay at day 76 post AAV2/8-HBV injection. HBV-specific responses were assessed using the HBV-Core peptides (Full pool Core), -polymerase specific peptide VSA or N13F. Shown are mean values of responder mice (>50 spots/10^6 cells) (mean, SEM). […]
# (§1) The HBV persistent mice used in the study were described by Dion et al. (2013, J Virol, 87(10):5554-63). […] This allows the analysis of HBV-specific viral parameters (HBsAg, HBeAg, HBcAg and viremia) as well as immunological read-outs (ICS, ELISpot or humoral immune responses). […]
# [3] = tested on: HBsAg (AAV2/8-HBV); assay: Serum HBsAg level by ELISA in HBV-persistent mice; type: in vivo, C57BL/6J mice; details: monotherapy; sildenafil 5, 20 or 80 mg/kg/day D31-59; AdTG18201 D36, 43, 50; up to day 104
# Procedure: Graph A illustrates the median level of HBsAg determined in the serum of groups of 10 mice (groups a to h) treated with sildenafil at 5 mg/kg/day (group b), at 20 mg/kg/day (group c), or at 80 mg/kg/day (group d) alone, or with AdTG18201 (group e) alone or with a combination of AdTG18201 and sildenafil (at 5, 20, or 80 mg/kg/day, groups f, g and h, respectively). The control group a is untreated. The Y-axis indicates the median HBsAg level (ng/mL) for each group and the X-axis the time (number of days post-AAV2/8-HBV injection). Graph B illustrates the median level of HBV DNA determined in the serum of the same groups of mice by PCR. The Y-axis indicates the median HBV DNA level (copies/mL) for each group of animals and the X-axis the time (number of days post-AAV2/8-HBV injection). […]
# as §1
# HBsAg levels in mouse serum were assessed using a commercial ELISA kit (Monolisa HBsAg Ultra, Bio-Rad, France) according to the manufacturer's protocol, except that a standard curve was established, to render the test quantitative. […]
# [4] = tested on: melanoma; details: melanoma bearing mice; cited from earlier work
# [5] = tested on: CT26-MUC1 cells; assay: Survival in CT26 colon cancer tumor model; type: in vivo, BALB/c mice; details: 44 days post tumor implantation; MVATG9931 5×10^7 pfu day 2 and 9; sildenafil 80 mg/kg/day drinking water day 0 to 28; 12 mice per group
smiles,measurement,setting,value
"CCCc1nn(C)c2c(=O)nc(-c3cc(S(=O)(=O)N4CCN(C)CC4)ccc3OCC)[nH]c12 [sildenafil, 1-[[3-(4,7-dihydro-1-methyl-7-oxo-3-propyl-1H-pyrazolo[4,3-d]pyrimidin-5-yl)-4-ethoxyphenyl]sulfonyl]-4-methylpiperazine]",intratumoral T cell infiltration and activation,[1],enhance intratumoral T cell infiltration and activation
same,"HBV-specific IFNg producing T responses (Full pool core, VSA, N13F)",[2],did not show any IFNg producing T responses
same,"HBsAg median level, course",[3],no significant HBsAg decrease
same,"concentration of inflammatory mediators (IL-1β, IL-6, VEGF, GM-CSF, MCP-1) in melanoma lesions",[4],significantly diminished
same,tumor progression,[4],delay tumor progression
same,mice still alive (survival),[5],20%
